PMC7252619 (PLoS ONE, 2020)
pIC50: −log10 of the molar value. Like-named read-outs stand apart in the source and are kept apart here.

Legend:
[1] = target: T1, EPHB4 (Homo sapiens, UniProt P54760); assay: Kinase activity test (ReactionBiology), % enzyme activity relative to DMSO; type: biochemical; settings: EPHB4;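 also: EPHB4 was one of ten selected kinases in the screening panel, with enzyme activity expressed as a percentage of DMSO controls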
T1 construct: purchased ReactionBiology
T1 sequence (P54760 16-987): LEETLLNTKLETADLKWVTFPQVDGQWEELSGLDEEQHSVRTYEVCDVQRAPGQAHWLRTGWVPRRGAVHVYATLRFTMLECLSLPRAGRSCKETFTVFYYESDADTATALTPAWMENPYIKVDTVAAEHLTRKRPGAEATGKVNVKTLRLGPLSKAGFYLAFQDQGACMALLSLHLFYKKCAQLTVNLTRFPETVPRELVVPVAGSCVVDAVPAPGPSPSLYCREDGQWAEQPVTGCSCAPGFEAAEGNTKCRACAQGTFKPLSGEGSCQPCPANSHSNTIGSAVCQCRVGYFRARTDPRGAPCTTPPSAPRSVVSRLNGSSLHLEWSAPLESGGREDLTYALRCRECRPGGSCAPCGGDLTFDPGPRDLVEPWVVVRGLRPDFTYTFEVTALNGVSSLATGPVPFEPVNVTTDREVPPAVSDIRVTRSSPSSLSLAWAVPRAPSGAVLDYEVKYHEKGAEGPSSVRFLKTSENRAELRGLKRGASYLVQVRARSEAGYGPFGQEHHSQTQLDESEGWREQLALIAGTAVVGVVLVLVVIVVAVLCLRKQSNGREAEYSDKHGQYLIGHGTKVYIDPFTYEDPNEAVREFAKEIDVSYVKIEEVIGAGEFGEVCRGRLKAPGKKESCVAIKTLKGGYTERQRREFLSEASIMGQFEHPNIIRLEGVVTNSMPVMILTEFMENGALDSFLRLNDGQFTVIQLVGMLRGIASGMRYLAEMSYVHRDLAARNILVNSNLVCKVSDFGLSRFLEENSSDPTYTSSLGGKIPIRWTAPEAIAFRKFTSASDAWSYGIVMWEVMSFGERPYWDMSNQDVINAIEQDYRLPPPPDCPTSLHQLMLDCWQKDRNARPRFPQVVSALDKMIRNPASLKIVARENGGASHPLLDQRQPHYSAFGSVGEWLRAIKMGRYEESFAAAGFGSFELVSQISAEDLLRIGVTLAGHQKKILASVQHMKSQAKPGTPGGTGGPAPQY

[2] = WST-1 cytotoxicity assay on Jurkat cells (T-cell line); type: cell-based, human; settings: human, Jurkat cells (T-cell line), mean of 4 independent measures, read-out: Cytotoxicity, WST-1 Jurkat IC 50 (µM) Mean
Protocol: Compounds were prepared as 10 mM stock solutions in dimethylsulfoxide (DMSO)and were tested at 50-10-1-0.1-0.01 and 0.001 μM in the 4 assays.
The human B cell line RPMI1788 (American Type Culture Collection, USA) and the human T cell line Jurkat (European Collection of Cell Cultures, ECACC, England) were maintained in RPMI1640 culture medium (BioWhittaker®, Lonza, Verviers, Belgium) containing 10% foetal calf serum (FCS, HyClone® Thermo Scientific, United Kingdom) and 5 μg/mL gentamicin sulphate (BioWhittaker®, Lonza, Verviers, Belgium) at 37°C and 5% CO2.
WST-1 assays on RPMI-1788 cells and Jurkat cells were performed as follows: 20 μL of test compound dilution were added to each well containing exponential growing cells and the plates were incubated for 48 h at 37°C, 5% CO2. Untreated cells and positive control (1% triton X-100, for the last 15 min) served as reference for maximum and minimum viability. At the end of incubation 100 μL of supernatant were removed and replaced by 10 μL of WST-1 solution (Cell Proliferation Reagent WST-1, Roche Applied Science).

[3] = target: VEGFR2 (Homo sapiens, UniProt P35968); assay: Kinase activity test (ReactionBiology), % enzyme activity relative to DMSO; type: biochemical; design: purchased ReactionBiology; settings: VEGFR2;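 also: VEGFR2 was one member of a ten-kinase screening panel testing marketed FDA-approved drugs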
[4] = test system: human PBMCs (responder cells) with RPMI1788 stimulator cells; assay: Mixed Lymphocyte Reaction (MLR, T cell assay), 3H-thymidine incorporation; type: cell-based; settings: for IC50: Homo sapiens, RPMI-1788, mean of 4 independent measures, read-out: T-cell efficacy, MLR IC 50 (µM) Mean
Protocol: In order to test the efficacy and selectivity of the hit compounds on B-cells, 4 assays were performed: B-cell assay, Mixed Lymphocyte Reaction (MLR), WST-1 assay on RPMI1788 cells (B-cell line) and cytotoxicity WST-1 assay on Jurkat cells (T-cell line). Compounds were prepared as 10 mM stock solutions in dimethylsulfoxide (DMSO)and were tested at 50-10-1-0.1-0.01 and 0.001 μM in the 4 assays.
Blood samples of healthy volunteers were collected at the Red Cross of Mechelen, Belgium. Each donor consents to the use of their blood for research purposes. […] The human B cell line RPMI1788 (American Type Culture Collection, USA) and the human T cell line Jurkat (European Collection of Cell Cultures, ECACC, England) were maintained in RPMI1640 culture medium (BioWhittaker®, Lonza, Verviers, Belgium) containing 10% foetal calf serum (FCS, HyClone® Thermo Scientific, United Kingdom) and 5 μg/mL gentamicin sulphate (BioWhittaker®, Lonza, Verviers, Belgium) at 37°C and 5% CO2.
MLR assay (T cell assay): Freshly isolated human PBMCs (responder cells) were resuspended in RPMI1640 medium containing 10% FCS and 5nμg/mL gentamicin sulphate. RPMI1788 cells (stimulator cells) were inactivated by treatment with mitomycin C (Kyowa®, Takeda Belgium, Brussels, Belgium) for 20 min at 37°C, washed and finally suspended in culture medium. An amount of 100 μL of each cell suspension was mixed with 20 μL of diluted compound. The mixed cells were cultured at 37°C for 6 days in 5% CO2. DNA synthesis was assayed by the addition of 10 μCi (methyl-3H) thymidine (Perkin Elmer, Zaventem, Belgium) per well during the last 18 h in culture. Thereafter, the cells were harvested on glass filter paper and the counts per minute determined in a liquid scintillation counter (TopCount, Perkin Elmer, Zaventem, Belgium).

[5] = WST-1 cytotoxicity assay on RPMI1788 cells (B-cell line); type: cell-based, human; settings: human, RPMI1788 cells (B-cell line), mean of 4 independent measures, read-out: Cytotoxicity, WST-1 RPMI 1788 IC 50 (µM) Mean
[6] = target: T2, DAPK1 (Homo sapiens, UniProt P53355); assay: Kinase activity test (ReactionBiology), % enzyme activity relative to DMSO; type: biochemical; settings: DAPK1
T2 construct: purchased ReactionBiology

[7] = test system: human CD19+ B cells; assay: B-cell assay: IgG production of ODN2006-stimulated primary B cells (AlphaLISA); type: cell-based; settings: Homo sapiens, B-cell, 168 h; IgG production, ODN2006 0.1 μM, 7 days; mean of 4 independent experiments; read-out: B-cell IC50
[8] = target: T3, NEK2 (Homo sapiens, UniProt P51955); assay: Kinase activity test (ReactionBiology), % enzyme activity relative to DMSO; type: biochemical; settings: NEK2;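 also: FDA-approved drugs chosen by structure-based repositioning, each screened at 10 or 1 µM for kinase activity, expressed as percent of DMSO controls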
T3 construct: purchased ReactionBiology
T3 sequence (P51955 1-445): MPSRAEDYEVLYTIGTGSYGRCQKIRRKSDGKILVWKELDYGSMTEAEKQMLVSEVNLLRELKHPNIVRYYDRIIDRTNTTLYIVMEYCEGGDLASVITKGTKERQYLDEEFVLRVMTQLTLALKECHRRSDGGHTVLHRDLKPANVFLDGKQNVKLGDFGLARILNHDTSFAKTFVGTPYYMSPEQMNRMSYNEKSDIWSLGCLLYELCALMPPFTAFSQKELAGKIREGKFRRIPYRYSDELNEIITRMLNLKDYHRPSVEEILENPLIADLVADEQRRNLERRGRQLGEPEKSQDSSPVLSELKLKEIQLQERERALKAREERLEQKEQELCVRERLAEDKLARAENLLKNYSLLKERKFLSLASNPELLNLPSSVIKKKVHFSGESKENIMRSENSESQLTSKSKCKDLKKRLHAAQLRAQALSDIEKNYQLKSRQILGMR

[9] = target: T4, CK1d (Homo sapiens, UniProt P48730); assay: as above; type: biochemical; settings: CK1d
T4 construct: purchased ReactionBiology

[10] = 1 uM, Average, read-out: % Enzyme Activity (relative to DMSO controls), Average
[11] = 1 uM, replicate Data 1, read-out: % Enzyme Activity (relative to DMSO controls), Data 1
[12] = 1 uM, replicate Data 2, read-out: % Enzyme Activity (relative to DMSO controls), Data 2
[13] = 10 uM, Average, read-out: % Enzyme Activity (relative to DMSO controls), Average
[14] = 10 uM, replicate Data 1, read-out: % Enzyme Activity (relative to DMSO controls), Data 1
[15] = 10 uM, replicate Data 2, read-out: % Enzyme Activity (relative to DMSO controls), Data 2
[16] = Average, read-out: % Enzyme Activity (relative to DMSO controls), Average
[17] = replicate Data 1, read-out: % Enzyme Activity (relative to DMSO controls), Data 1
[18] = replicate Data 2, read-out: % Enzyme Activity (relative to DMSO controls), Data 2
[19] = compound 1μM, relative to DMSO controls, read-out: % Enzyme activity at 1μM
[20] = compound 10μM, relative to DMSO controls, read-out: % Enzyme activity at 10μM

Sequence of VEGFR2 (P35968 20-1356): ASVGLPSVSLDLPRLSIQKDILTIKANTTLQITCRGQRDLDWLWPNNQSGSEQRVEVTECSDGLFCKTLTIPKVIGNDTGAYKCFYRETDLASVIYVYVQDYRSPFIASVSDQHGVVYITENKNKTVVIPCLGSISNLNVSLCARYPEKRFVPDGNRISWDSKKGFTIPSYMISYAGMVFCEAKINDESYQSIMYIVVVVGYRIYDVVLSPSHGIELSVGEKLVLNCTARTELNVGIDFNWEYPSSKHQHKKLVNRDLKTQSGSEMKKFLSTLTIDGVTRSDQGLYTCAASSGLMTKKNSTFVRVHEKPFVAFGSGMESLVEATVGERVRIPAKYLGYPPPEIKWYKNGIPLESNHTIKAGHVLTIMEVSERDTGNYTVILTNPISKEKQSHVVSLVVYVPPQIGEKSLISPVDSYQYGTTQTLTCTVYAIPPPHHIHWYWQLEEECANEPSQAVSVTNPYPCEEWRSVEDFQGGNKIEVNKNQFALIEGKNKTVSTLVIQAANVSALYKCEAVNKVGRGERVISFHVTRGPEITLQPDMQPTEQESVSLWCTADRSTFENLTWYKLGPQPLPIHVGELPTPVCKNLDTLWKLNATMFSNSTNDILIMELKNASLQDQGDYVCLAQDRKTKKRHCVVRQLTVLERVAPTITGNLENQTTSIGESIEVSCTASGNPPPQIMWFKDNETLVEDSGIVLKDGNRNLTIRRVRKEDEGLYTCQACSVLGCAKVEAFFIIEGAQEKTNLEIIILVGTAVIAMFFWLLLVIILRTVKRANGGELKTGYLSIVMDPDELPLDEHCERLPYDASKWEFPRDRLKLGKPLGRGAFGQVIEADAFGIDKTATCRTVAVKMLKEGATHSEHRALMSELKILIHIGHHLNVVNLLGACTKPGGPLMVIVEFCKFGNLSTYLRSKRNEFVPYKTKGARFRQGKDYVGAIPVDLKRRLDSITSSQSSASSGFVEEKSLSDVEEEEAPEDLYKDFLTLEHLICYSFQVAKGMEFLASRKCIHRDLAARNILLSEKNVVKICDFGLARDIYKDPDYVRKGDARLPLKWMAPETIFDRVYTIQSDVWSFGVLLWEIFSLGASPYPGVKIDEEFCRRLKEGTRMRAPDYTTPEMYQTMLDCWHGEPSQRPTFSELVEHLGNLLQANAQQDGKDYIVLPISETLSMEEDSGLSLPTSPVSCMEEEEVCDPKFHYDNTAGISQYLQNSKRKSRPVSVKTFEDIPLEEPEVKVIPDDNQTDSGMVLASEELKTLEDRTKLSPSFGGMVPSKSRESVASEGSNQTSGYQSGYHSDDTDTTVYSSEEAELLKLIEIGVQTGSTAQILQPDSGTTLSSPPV
T4 sequence (P48730 whole entry): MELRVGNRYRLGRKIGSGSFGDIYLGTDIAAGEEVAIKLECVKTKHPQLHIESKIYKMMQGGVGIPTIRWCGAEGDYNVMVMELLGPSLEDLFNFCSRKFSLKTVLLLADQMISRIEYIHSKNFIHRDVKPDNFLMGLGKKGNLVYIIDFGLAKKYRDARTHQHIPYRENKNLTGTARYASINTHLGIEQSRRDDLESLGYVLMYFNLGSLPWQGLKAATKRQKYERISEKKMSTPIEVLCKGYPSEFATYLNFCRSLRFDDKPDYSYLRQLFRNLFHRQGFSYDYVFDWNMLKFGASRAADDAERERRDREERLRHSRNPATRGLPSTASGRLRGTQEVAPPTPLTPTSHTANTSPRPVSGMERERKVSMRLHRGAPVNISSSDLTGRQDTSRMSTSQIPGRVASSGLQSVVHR
T2 sequence (P53355 whole entry): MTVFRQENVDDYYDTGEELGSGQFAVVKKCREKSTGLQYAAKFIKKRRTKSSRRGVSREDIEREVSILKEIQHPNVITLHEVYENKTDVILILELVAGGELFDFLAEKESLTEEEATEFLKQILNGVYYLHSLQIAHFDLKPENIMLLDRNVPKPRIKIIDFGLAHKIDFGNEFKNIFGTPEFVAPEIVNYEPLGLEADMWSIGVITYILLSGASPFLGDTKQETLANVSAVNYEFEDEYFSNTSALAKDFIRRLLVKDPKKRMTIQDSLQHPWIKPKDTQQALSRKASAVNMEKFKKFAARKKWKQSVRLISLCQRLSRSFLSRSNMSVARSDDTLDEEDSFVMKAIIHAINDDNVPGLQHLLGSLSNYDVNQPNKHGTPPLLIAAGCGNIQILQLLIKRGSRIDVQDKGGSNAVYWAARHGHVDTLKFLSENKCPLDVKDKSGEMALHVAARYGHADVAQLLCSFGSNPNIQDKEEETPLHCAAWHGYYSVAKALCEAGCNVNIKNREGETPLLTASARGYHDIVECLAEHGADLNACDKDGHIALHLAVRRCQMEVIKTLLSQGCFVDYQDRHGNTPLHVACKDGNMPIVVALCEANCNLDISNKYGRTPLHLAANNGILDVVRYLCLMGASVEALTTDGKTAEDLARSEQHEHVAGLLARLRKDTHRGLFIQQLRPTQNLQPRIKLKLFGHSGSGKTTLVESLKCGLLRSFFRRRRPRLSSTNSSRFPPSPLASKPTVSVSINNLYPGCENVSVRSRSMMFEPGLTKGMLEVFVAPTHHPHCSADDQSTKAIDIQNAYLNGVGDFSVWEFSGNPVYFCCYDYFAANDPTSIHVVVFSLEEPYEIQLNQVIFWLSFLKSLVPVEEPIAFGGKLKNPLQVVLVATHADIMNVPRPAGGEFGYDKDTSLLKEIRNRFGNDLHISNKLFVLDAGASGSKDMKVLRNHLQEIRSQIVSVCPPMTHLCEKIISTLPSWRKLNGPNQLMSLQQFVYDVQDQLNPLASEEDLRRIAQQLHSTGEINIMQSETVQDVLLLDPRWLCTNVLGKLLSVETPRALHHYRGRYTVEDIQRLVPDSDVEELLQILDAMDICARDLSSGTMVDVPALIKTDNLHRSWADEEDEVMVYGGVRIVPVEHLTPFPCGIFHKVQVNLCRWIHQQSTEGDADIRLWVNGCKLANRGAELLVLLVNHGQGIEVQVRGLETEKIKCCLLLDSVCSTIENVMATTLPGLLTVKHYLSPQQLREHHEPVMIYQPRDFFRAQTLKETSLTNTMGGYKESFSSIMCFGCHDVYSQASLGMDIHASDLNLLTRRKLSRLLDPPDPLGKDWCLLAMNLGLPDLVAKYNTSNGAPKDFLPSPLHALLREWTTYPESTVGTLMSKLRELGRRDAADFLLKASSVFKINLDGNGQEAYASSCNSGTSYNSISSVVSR

Row | Structure (SMILES) | remaining activity at 1 µM [1, 10] | remaining activity at 1 µM [1, 11] | remaining activity at 1 µM [1, 12] | remaining activity at 10 µM [1, 13] | remaining activity at 10 µM [1, 14] | remaining activity at 10 µM [1, 15] | IC50 at 48 h [2] | remaining activity at 1 µM [3, 16] | remaining activity at 1 µM [3, 17] | remaining activity at 1 µM [3, 18] | remaining activity at 10 µM [3, 16] | remaining activity at 10 µM [3, 17] | remaining activity at 10 µM [3, 18] | IC50 [4] | IC50 at 48 h [5] | remaining activity at 1 µM [6, 10] | remaining activity at 1 µM [6, 11] | remaining activity at 1 µM [6, 12] | remaining activity at 10 µM [6, 13] | remaining activity at 10 µM [6, 14] | further results
1 | C[C@]12CC[C@@H]3c4ccc(O)cc4CC[C@H]3[C@@H]1CC[C@@H]2O [Estradiol, reference compound] | 100% | 99.8% | 100% | 91.9% | 91.3% | 92.5% | 19.5 µM | 115% | 115% | 115% | 105% | 106% | 103% | 21.2 µM | 35.9 µM | 111% | 98% | 123% | 69% | 68.3% | Selectivity Index (SI) MLR/B-cell ([4]; ratio of IC50 values): 0.63; remaining activity at 10 µM [6, 15]: 69.7%; remaining activity at 1 µM [6, 19]: 111%; remaining activity at 10 µM [6, 20]: 69%; pIC50 [7]: 4.47; remaining activity at 1 µM [8, 16]: 92.1%; remaining activity at 1 µM [8, 17]: 95.7%; remaining activity at 1 µM [8, 18]: 88.5%; remaining activity at 10 µM [8, 16]: 89%; remaining activity at 10 µM [8, 17]: 94.9%; remaining activity at 10 µM [8, 18]: 83%; remaining activity at 1 µM [9, 16]: 101%; remaining activity at 1 µM [9, 17]: 99.6%; remaining activity at 1 µM [9, 18]: 102%; remaining activity at 10 µM [9, 16]: 96.5%; remaining activity at 10 µM [9, 17]: 98.7%; remaining activity at 10 µM [9, 18]: 94.2%
2 | NC(=O)c1cccnc1 [Niacinamide, reference compound] | 69.3% | 69% | 69.6% | 69.7% | 68.3% | 71.1% | > 50 µM | 96.4% | 97.5% | 95.4% | 95.7% | 90.6% | 101% | > 50 µM | > 50 µM | 111% | 112% | 110% | 100% | 97.7% | remaining activity at 1 µM [1, 19]: 69.3%; remaining activity at 10 µM [1, 20]: 69.7%; remaining activity at 10 µM [6, 15]: 103%; pIC50 [7]: < 4.30; remaining activity at 1 µM [8, 16]: 87.3%; remaining activity at 1 µM [8, 17]: 81%; remaining activity at 1 µM [8, 18]: 93.6%; remaining activity at 10 µM [8, 16]: 76.4%; remaining activity at 10 µM [8, 17]: 65%; remaining activity at 10 µM [8, 18]: 87.8%; remaining activity at 1 µM [9, 16]: 113%; remaining activity at 1 µM [9, 17]: 107%; remaining activity at 1 µM [9, 18]: 119%; remaining activity at 10 µM [9, 16]: 101%; remaining activity at 10 µM [9, 17]: 97.9%; remaining activity at 10 µM [9, 18]: 105%
